Patent publication US12281122B1, “PI3K inhibitors” (Cogent Biosciences, Inc., priority 2023, dated 2025)

Tests used:
[1] = system: T47D (PI3Kα-H1047R) cell line; test: HTRF phospho-AKT(S473) cell assay in T47D cells; assay type: cell-based, human; settings: Homo sapiens; HTRF phospho-AKT(S473), T47D (PI3Kα-H1047R) cells, 2 hours compound incubation
Method in brief: (§1)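 T47D (PI3Kα-H1047R; RPMI, 10% FBS, insulin) and SKBR3 (wild-type PI3Kα; McCoy's 5A, 10% FBS) cells treated 2 h at 37 °C with 12-point 1:3 dilutions, top 5 μM and 10 μM respectively, ≤0.5% DMSO. SKBR3 stimulated with 70 ng/ml PDGF-BB for the last 15 min; lysate pAKT(S473) by HTRF, IC50 from curves.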

[2] = system: SKBR3 (PI3Kα-Wild Type) cell line; test: HTRF phospho-AKT(S473) cell assay in SKBR3 cells; assay type: cell-based, human; settings: Homo sapiens, SK-BR-3; HTRF phospho-AKT(S473), SKBR3 (PI3Kα-Wild Type) cells, 2 hours compound incubation, PDGF-BB stimulated
Method in brief: as §1

Row | Compound | IC50 [1] [nM] | IC50 [2] [nM]
1 | Cc1cc([C@@H](C)Nc2ccc(Cl)nc2C(=O)NS(C)(=O)=O)c2nc(-c3ccn(-c4ccn(C)n4)c(=O)c3)n(C)c(=O)c2c1 [Compound 807, (R)-6-chloro-3-((1-(3,6-dimethyl-2-(1-(1-methyl-1H-pyrazol-3-yl)-2-oxo-1,2-dihydropyridin-4-yl)-4-oxo-3,4-dihydroquinazolin-8-yl)ethyl)amino)-N-(methylsulfonyl) picolinamide] | 250 to 500 | ≥ 5000
2 | Cc1cc([C@@H](C)Nc2ccc(Cl)nc2C(=O)NS(C)(=O)=O)c2nc(-c3ccnc(O[C@@H]4CCNCC4(F)F)c3)n(C)c(=O)c2c1 [Compound 808, 6-chloro-3-(((R)-1-(2-(2-(((R)-3,3-difluoropiperidin-4-yl)oxy)pyridin-4-yl)-3,6-dimethyl-4-oxo-3,4-dihydroquinazolin-8-yl)ethyl)amino)-N-(methylsulfonyl) picolinamide] | 250 to 500 | ≥ 5000
3 | Cc1cc([C@@H](C)Nc2ccc(Cl)nc2C(=O)NS(C)(=O)=O)c2nc(-c3ccnc(O[C@@H]4CCN(C)CC4(F)F)c3)n(C)c(=O)c2c1 [Compound 809, 6-chloro-3-(((R)-1-(2-(2-(((R)-3,3-difluoro-1-methylpiperidin-4-yl)oxy)pyridin-4-yl)-3,6-dimethyl-4-oxo-3,4-dihydroquinazolin-8-yl)ethyl)amino)-N-(methylsulfonyl) picolinamide] | 250 to 500 | ≥ 5000
4 | Cc1cnc(N2C[C@@H]3[C@H](C2)[C@H]3c2nc3c([C@@H](C)Nc4ccc(Cl)nc4C(=O)NS(C)(=O)=O)cc(C)cc3c(=O)n2C)nc1 [Compound 810, 6-chloro-3-(((R)-1-(3,6-dimethyl-2-((1R,5S,6r)-3-(5-methylpyrimidin-2-yl)-3-azabicyclo[3.1.0]hexan-6-yl)-4-oxo-3,4-dihydroquinazolin-8-yl)ethyl)amino)-N-(methylsulfonyl) picolinamide] | 250 to 500 | ≥ 5000
5 | Cc1cc([C@@H](C)Nc2ccc(Cl)nc2C(=O)NS(C)(=O)=O)c2nc([C@H]3[C@@H]4CN(c5cnc(C)cn5)C[C@@H]43)n(C)c(=O)c2c1 [Compound 811, 6-chloro-3-(((R)-1-(3,6-dimethyl-2-((1R,5S,6r)-3-(5-methylpyrazin-2-yl)-3-azabicyclo[3.1.0]hexan-6-yl)-4-oxo-3,4-dihydroquinazolin-8-yl)ethyl)amino)-N-(methylsulfonyl) picolinamide] | 250 to 500 | ≥ 5000
6 | CCn1c(-c2ccc3nn(C)cc3c2)nc2c([C@@H](C)Nc3ccc(Cl)nc3C(=O)NS(C)(=O)=O)cc(C)cc2c1=O [Compound 812, (R)-6-chloro-3-((1-(3-ethyl-6-methyl-2-(2-methyl-2H-indazol-5-yl)-4-oxo-3,4-dihydroquinazolin-8-yl)ethyl)amino)-N-(methylsulfonyl) picolinamide] | < 250 | 1000 to 5000
7 | Cc1cc([C@@H](C)Nc2ccc(Cl)nc2C(=O)NS(C)(=O)=O)c2nc(-c3ccccc3)n(C)c(=O)c2c1 [Compound 813, (R)-6-chloro-3-((1-(3,6-dimethyl-4-oxo-2-phenyl-3,4-dihydroquinazolin-8-yl)ethyl)amino)-N-(methylsulfonyl) picolinamide] | 250 to 500 | ≥ 5000
8 | Cc1cc([C@@H](C)Nc2ccc(Cl)nc2C(=O)NS(C)(=O)=O)c2nc(-c3cnc(N4CCOCC4)nc3)n(C)c(=O)c2c1 [Compound 814, (R)-6-chloro-3-((1-(3,6-dimethyl-2-(2-morpholinopyrimidin-5-yl)-4-oxo-3,4-dihydroquinazolin-8-yl)ethyl)amino)-N-(methylsulfonyl) picolinamide] | < 250 | 1000 to 5000
9 | Cc1cc([C@@H](C)Nc2ccc(Cl)nc2C(=O)NS(C)(=O)=O)c2nc(-c3ccc(OC4CCN(CC(F)F)CC4)nc3)n(C)c(=O)c2c1 [Compound 815, (R)-6-chloro-3-((1-(2-(6-((1-(2,2-difluoroethyl)piperidin-4-yl)oxy)pyridin-3-yl)-3,6-dimethyl-4-oxo-3,4-dihydroquinazolin-8-yl)ethyl)amino)-N-(methylsulfonyl) picolinamide] | 250 to 500 | ≥ 5000
10 | Cc1cc([C@@H](C)Nc2ccc(Cl)nc2C(=O)NS(C)(=O)=O)c2nc(-c3ccc(Oc4cnn(C)c4)nc3)n(C)c(=O)c2c1 [Compound 816, (R)-6-chloro-3-((1-(3,6-dimethyl-2-(6-((1-methyl-1H-pyrazol-4-yl)oxy)pyridin-3-yl)-4-oxo-3,4-dihydroquinazolin-8-yl)ethyl)amino)-N-(methylsulfonyl) picolinamide] | < 250 | 1000 to 5000
11 | [2H]C([2H])([2H])n1cc2cc(-c3nc4c([C@@H](C)Nc5ccc(Cl)nc5C(=O)NS(C)(=O)=O)cc(C)cc4c(=O)n3C)ccc2n1 [Compound 817, (R)-6-chloro-3-((1-(3,6-dimethyl-2-(2-(methyl-d3)-2H-indazol-5-yl)-4-oxo-3,4-dihydroquinazolin-8-yl)ethyl)amino)-N-(methylsulfonyl) picolinamide] | < 250 | 1000 to 5000
12 | [2H]C([2H])([2H])n1ncc2cc(-c3nc4c([C@@H](C)Nc5ccc(Cl)nc5C(=O)NS(C)(=O)=O)cc(C)cc4c(=O)n3C)ccc21 [Compound 818, (R)-6-chloro-3-((1-(3,6-dimethyl-2-(1-(methyl-d3)-1H-indazol-5-yl)-4-oxo-3,4-dihydroquinazolin-8-yl)ethyl)amino)-N-(methylsulfonyl) picolinamide] | < 250 | 1000 to 5000
13 | Cc1cc([C@@H](C)Nc2ccc(Cl)nc2C(=O)NS(C)(=O)=O)c2nc(-c3ccc4nn(C5CC5)cc4c3)n(C)c(=O)c2c1 [Compound 819, (R)-6-chloro-3-((1-(2-(2-cyclopropyl-2H-indazol-5-yl)-3,6-dimethyl-4-oxo-3,4-dihydroquinazolin-8-yl)ethyl)amino)-N-(methylsulfonyl) picolinamide] | 250 to 500 | 1000 to 5000
14 | Cc1cc([C@@H](C)Nc2ccc(Cl)nc2C(=O)NS(C)(=O)=O)c2nc([C@H]3[C@@H]4CN(c5cnc(C)nc5)C[C@@H]43)n(C)c(=O)c2c1 [Compound 820, 6-chloro-3-(((R)-1-(3,6-dimethyl-2-((1R,5S,6r)-3-(2-methylpyrimidin-5-yl)-3-azabicyclo[3.1.0]hexan-6-yl)-4-oxo-3,4-dihydroquinazolin-8-yl)ethyl)amino)-N-(methylsulfonyl) picolinamide] | < 250 | 1000 to 5000
15 | Cc1cc([C@@H](C)Nc2ccc(Cl)nc2C(=O)NS(C)(=O)=O)c2nc(-c3ccc4oc(C)nc4c3)n(C)c(=O)c2c1 [Compound 821, (R)-6-chloro-3-((1-(3,6-dimethyl-2-(2-methylbenzo[d]oxazol-5-yl)-4-oxo-3,4-dihydroquinazolin-8-yl)ethyl)amino)-N-(methylsulfonyl) picolinamide] | 250 to 500 | ≥ 5000
16 | Cc1cc([C@@H](C)Nc2ccc(Cl)nc2C(=O)NS(C)(=O)=O)c2nc(-c3ccn4nc(C)nc4c3)n(C)c(=O)c2c1 [Compound 822, (R)-6-chloro-3-((1-(3,6-dimethyl-2-(2-methyl-[1,2,4]triazolo[1,5-a]pyridin-7-yl)-4-oxo-3,4-dihydroquinazolin-8-yl)ethyl)amino)-N-(methylsulfonyl) picolinamide] | 250 to 500 | ≥ 5000
17 | Cc1cc([C@@H](C)Nc2ccc(Cl)nc2C(=O)NS(C)(=O)=O)c2nc(-c3ccc4nc(C)nn4c3)n(C)c(=O)c2c1 [Compound 823, (R)-6-chloro-3-((1-(3,6-dimethyl-2-(2-methyl-[1,2,4]triazolo [1,5-a]pyridin-6-yl)-4-oxo-3,4-dihydroquinazolin-8-yl)ethyl)amino)-N-(methylsulfonyl) picolinamide] | 500 to 1000 | ≥ 5000
18 | Cc1cc([C@@H](C)Nc2ccc(Cl)nc2C(=O)NS(C)(=O)=O)c2nc(-c3cc(F)c4cn(C)nc4c3)n(C)c(=O)c2c1 [Compound 824, (R)-6-chloro-3-((1-(2-(4-fluoro-2-methyl-2H-indazol-6-yl)-3,6-dimethyl-4-oxo-3,4-dihydroquinazolin-8-yl)ethyl)amino)-N-(methylsulfonyl) picolinamide] | < 250 | 1000 to 5000
19 | Cc1cc([C@@H](C)Nc2ccc(Cl)nc2C(=O)NS(C)(=O)=O)c2nc([C@H]3[C@@H]4CN(c5ncc(Cl)cn5)C[C@@H]43)n(C)c(=O)c2c1 [Compound 825, 6-chloro-3-(((R)-1-(2-((1R,5S,6r)-3-(5-chloropyrimidin-2-yl)-3-azabicyclo[3.1.0]hexan-6-yl)-3,6-dimethyl-4-oxo-3,4-dihydroquinazolin-8-yl)ethyl)amino)-N-(methylsulfonyl) picolinamide] | 1000 to 5000 | ≥ 5000
20 | Cc1cc([C@@H](C)Nc2ccc(Cl)nc2C(=O)NS(C)(=O)=O)c2nc([C@H]3[C@@H]4CN(c5nccc(C)n5)C[C@@H]43)n(C)c(=O)c2c1 [Compound 826, 6-chloro-3-(((R)-1-(3,6-dimethyl-2-((1R,5S,6r)-3-(4-methylpyrimidin-2-yl)-3-azabicyclo[3.1.0]hexan-6-yl)-4-oxo-3,4-dihydroquinazolin-8-yl)ethyl)amino)-N-(methylsulfonyl) picolinamide] | 250 to 500 | ≥ 5000
21 | Cc1cc([C@@H](C)Nc2ccc(Cl)nc2C(=O)NS(C)(=O)=O)c2nc([C@H]3[C@@H]4CN(c5ncc(F)cn5)C[C@@H]43)n(C)c(=O)c2c1 [Compound 827, 6-chloro-3-(((R)-1-(2-((1R,5S,6r)-3-(5-fluoropyrimidin-2-yl)-3-azabicyclo[3.1.0]hexan-6-yl)-3,6-dimethyl-4-oxo-3,4-dihydroquinazolin-8-yl)ethyl)amino)-N-(methylsulfonyl) picolinamide] | 500 to 1000 | ≥ 5000
